≈ marks a conversion by molar mass, not a printed value.
Legend:
[1] = system: Enterococcus faecalis MMX 101/ATCC 29212; assay: Broth microdilution MIC, standard CLSI media, ATCC QC organism; type: cell-based
Description: (§1) The test organisms were originally received from clinical sources or from the American Type Culture Collection (ATCC, Manassas, Va.). When received, the organisms were subcultured onto an appropriate agar medium. Following incubation, colonies were harvested from the plate and a cell suspension was prepared in broth containing cryoprotectant and frozen at −80° C. Prior to the assay, a frozen vial of the culture was partially thawed and the contents were streaked for isolation onto an appropriate growth medium. The agar plates were incubated overnight at 35° C. Test organisms included staphylococci and enterococci (Table 1), streptococci (Table 2), Enterobacteriaceae (Table 3), lactose non-fermenting Gram-negative bacilli (Table 4), Haemophilus influenzae (Table 5), Neisseria gonorrhoeae (Table 5), and Clostridium difficile (Table 6).
(§2) The standard CLSI broth medium was employed for the purposes of quality control of the comparator drugs for the MIC assay and was only used for testing of relevant ATCC quality control isolates as established by CLSI (1-5).
(§3) MIC values were determined using a broth microdilution method as recommended by CLSI (1-5).
(§4) Column 1 was filled with 300 μL of the investigational and control agents at the appropriate stock concentration (40× of the highest test concentration). The Biomek 2000 was used to make eleven 2-fold serial dilutions to create a “mother plate.” The wells of column 12 contained no drug and served as growth control wells.
(§5) The daughter plates were prepared on the Biomek FX instrument which transferred 5 μL of drug solution from each well of the mother plate to the corresponding well of each daughter plate in a single step.
(§6) Standardized inoculum of each organism was prepared per CLSI methods (1-5). The inoculum for each organism was dispensed into sterile reservoirs divided by length (Beckman Coulter), and the Biomek 2000 was used to inoculate the plates. Daughter plates were placed on the Biomek 2000 work surface reversed so that inoculation took place from low to high drug concentration. The Biomek 2000 delivered 10 PL of standardized inoculum into each well resulting in a target inoculum size of approximately 5×10^5 CFU/mL. The wells of the daughter plates ultimately contained 185 μL of media, 5 μL of drug solution at 40× the test concentration, and 10 μL of bacterial inoculum prepared in media.
(§7) Plates were stacked 3-4 high, covered with a lid on the top plate, placed into plastic bags, and incubated at 35° C. under the appropriate conditions, with C. difficile incubated anaerobically. Plates were viewed post-incubation at 18-24 hr and again at 48 hr from the bottom using a plate viewer. […] MICs were read where visible growth of the organism was inhibited.

[2] = system: Escherichia coli MMX 102/ATCC 25922; assay: as above; type: cell-based
Description: as §1, §2, §3, §4, §5, §6, §7

[3] = system: Haemophilus influenzae MMX 1224/ATCC 49247; assay: as above; type: cell-based
Description: as §1, §2, §3, §4, §5, §6, §7

[4] = system: Neisseria gonorrhoeae MMX 683/ATCC 49226; assay: as above; type: cell-based
Description: as §1, §2, §3, §4, §5, §6, §7

[5] = system: Pseudomonas aeruginosa MMX 103/ATCC 27853; assay: as above; type: cell-based
Description: as §1, §2, §3, §4, §5, §6, §7

[6] = system: Staphylococcus aureus MMX 100/ATCC 29213; assay: as above; type: cell-based
Description: as §1, §2, §3, §4, §5, §6, §7

[7] = system: Streptococcus pneumoniae MMX 1195/ATCC 49619; assay: as above; type: cell-based
Description: as §1, §2, §3, §4, §5, §6, §7

[8] = system: Staphylococcus aureus MMX 100/ATCC 29213; conditions: CLSI QC ranges shown in parenthesis; cited from earlier work
[9] = system: Escherichia coli MMX 102/ATCC 25922; conditions: CLSI QC ranges shown in parenthesis; cited from earlier work
[10] = system: Pseudomonas aeruginosa MMX 103/ATCC 27853; conditions: CLSI QC ranges shown in parenthesis; cited from earlier work
[11] = system: Haemophilus influenzae MMX 1224/ATCC 49247; conditions: CLSI QC ranges shown in parenthesis; cited from earlier work
[12] = system: Clostridium difficile MMX 4381/ATCC 700057; assay: Broth microdilution MIC, standard CLSI media, ATCC QC organism; type: cell-based; conditions: Clostridioides difficile, ATCC700057, 48 hr results
Description: as §1, §2, §3, §4, §5, §6, §7

[13] = system: Enterococcus faecalis MMX 101/ATCC 29212; conditions: CLSI QC ranges shown in parenthesis; cited from earlier work
[14] = system: Streptococcus pneumoniae MMX 1195/ATCC 49619; conditions: CLSI QC ranges shown in parenthesis; cited from earlier work

| SMILES | MIC ([1]; ATCC29212, 24 hr results) [µg/mL] | MIC ([1]; ATCC29212, 48 hr results) [µg/mL] | MIC ([2]; ATCC25922, 24 hr results) [µg/mL] | MIC ([2]; ATCC25922, 48 hr results) [µg/mL] | MIC ([3]; ATCC49247, 24 hr results) [µg/mL] | MIC ([3]; ATCC49247, 48 hr results) [µg/mL] | MIC ([4]; ATCC49226, 24 hr results) [µg/mL] | MIC ([4]; ATCC49226, 48 hr results) [µg/mL] | MIC ([5]; ATCC27853, 24 hr results) [µg/mL] | MIC ([5]; ATCC27853, 48 hr results) [µg/mL] | MIC ([6]; ATCC29213, 24 hr results) [µg/mL] | MIC ([6]; ATCC29213, 48 hr results) [µg/mL] | MIC ([7]; ATCC49619, 24 hr results) [µg/mL] | MIC ([7]; ATCC49619, 48 hr results) [µg/mL] | CLSI QC range of MIC [8] | CLSI QC range of MIC [9] | CLSI QC range of MIC [10] | also measured |
| --- | --- | --- | --- | --- | --- | --- | --- | --- | --- | --- | --- | --- | --- | --- | --- | --- | --- | --- |
| CO/N=C(\C(=O)N[C@@H]1C(=O)N2C(C(=O)[O-])=C(C[N+]3(C)CCCC3)CS[C@H]12)c1csc(N)n1 [FEP, cefepime] | > 64 | > 64 | 0.25 (≈ 0.52 µM) | 0.25 (≈ 0.52 µM) | 0.25 (≈ 0.52 µM) | 0.25 (≈ 0.52 µM) | 16 (≈ 33.3 µM) | 32 (≈ 66.6 µM) | 1 (≈ 2.08 µM) | 2 (≈ 4.16 µM) | 16 (≈ 33.3 µM) | 16 (≈ 33.3 µM) | 0.5 (≈ 1.04 µM) | 0.5 (≈ 1.04 µM) | (4-16) μg/mL | (0.06-0.5) μg/mL | (1-4) μg/mL | CLSI QC range of MIC [11]: (0.12-1) μg/mL |
| C[C@@H](O)[C@H]1C(=O)N2C(C(=O)O)=C(S[C@@H]3CN[C@H](C(=O)N(C)C)C3)[C@H](C)[C@H]12 [MEM, meropenem] | 4 (≈ 10.4 µM) | > 4 | 0.03 (≈ 0.0782 µM) | 0.03 (≈ 0.0782 µM) | 0.06 (≈ 0.156 µM) | 0.06 (≈ 0.156 µM) | > 4 | > 4 | 0.5 (≈ 1.3 µM) | 1 (≈ 2.61 µM) | 0.06 (≈ 0.156 µM) | 0.12 (≈ 0.313 µM) | 0.06 (≈ 0.156 µM) | 0.06 (≈ 0.156 µM) | (0.03-0.12) μg/mL | (0.008-0.06) μg/mL | (0.25-1) μg/mL | MIC [12]: 1 µg/mL (≈ 2.61 µM); CLSI QC range of MIC [13]: (2-8) μg/mL; CLSI QC range of MIC [14]: (0.03-0.25) μg/mL |
